Reference: PubChem BioAssay AID1259407 (Chemical Carcinogenesis Research Information System (CCRIS), 2018)
Active and inactive are the calls of the source. The rule behind the calls is not given here.

Tested on: CCRIS mutagenicity, Ames/micronucleus/aberration tests
Assay: CCRIS mutagenicity studies
[1] = Test System: AMES SALMONELLA TYPHIMURIUM, Strain/Indicator: TA98, Metabolic Activation: NONE, Method: STANDARD PLATE
[2] = Test System: AMES SALMONELLA TYPHIMURIUM, Strain/Indicator: TA100, Metabolic Activation: NONE, Method: STANDARD PLATE

CN(C)CCCN1c2ccccc2CCc2ccccc21
mutagenic call [1]: inactive; negative | mutagenic call (Test System: AMES SALMONELLA TYPHIMURIUM, Strain/Indicator: TA98, Metabolic Activation: RAT, LIVER, S-9, AROCLOR 1254, Method: STANDARD PLATE): inactive; negative | mutagenic call [2]: inactive; negative | mutagenic call (Test System: AMES SALMONELLA TYPHIMURIUM, Strain/Indicator: TA100, Metabolic Activation: RAT, LIVER, S-9, AROCLOR 1254, Method: STANDARD PLATE): inactive; negative | mutagenic call (Test System: AMES SALMONELLA TYPHIMURIUM, Strain/Indicator: TA1535, Metabolic Activation: NONE, Method: STANDARD PLATE): inactive; negative | mutagenic call (Test System: AMES SALMONELLA TYPHIMURIUM, Strain/Indicator: TA1535, Metabolic Activation: RAT, LIVER, S-9, AROCLOR 1254, Method: STANDARD PLATE): inactive; negative | mutagenic call (Test System: AMES SALMONELLA TYPHIMURIUM, Strain/Indicator: TA1537, Metabolic Activation: NONE, Method: STANDARD PLATE): inactive; negative | mutagenic call (Test System: AMES SALMONELLA TYPHIMURIUM, Strain/Indicator: TA1537, Metabolic Activation: RAT, LIVER, S-9, AROCLOR 1254, Method: STANDARD PLATE): inactive; negative

CC(C)c1ccc(/C=C/c2ccc(N)cc2)cc1
mutagenic call [1]: inactive; negative | mutagenic call (Test System: AMES SALMONELLA TYPHIMURIUM, Strain/Indicator: TA98, Metabolic Activation: RAT, LIVER, S9, AROCLOR, Method: STANDARD PLATE): active; positive | mutagenic call [2]: inactive; negative | mutagenic call (Test System: AMES SALMONELLA TYPHIMURIUM, Strain/Indicator: TA100, Metabolic Activation: RAT, LIVER, S9, AROCLOR, Method: STANDARD PLATE): active; positive

CCCCCC(N)=O
mutagenic call (Test System: AMES SALMONELLA TYPHIMURIUM, Strain/Indicator: TA98, Metabolic Activation: HAMSTER, LIVER, S-9, AROCLOR 1254 (10%), Method: PREINCUBATION): inactive; negative | mutagenic call (Test System: AMES SALMONELLA TYPHIMURIUM, Strain/Indicator: TA98, Metabolic Activation: NONE, Method: PREINCUBATION): inactive; negative | mutagenic call (Test System: AMES SALMONELLA TYPHIMURIUM, Strain/Indicator: TA98, Metabolic Activation: RAT, LIVER, S-9, AROCLOR 1254 (10%), Method: PREINCUBATION): inactive; negative | mutagenic call (Test System: AMES SALMONELLA TYPHIMURIUM, Strain/Indicator: TA100, Metabolic Activation: HAMSTER, LIVER, S-9, AROCLOR 1254 (10%), Method: PREINCUBATION): inactive; negative | mutagenic call (Test System: AMES SALMONELLA TYPHIMURIUM, Strain/Indicator: TA100, Metabolic Activation: NONE, Method: PREINCUBATION): inactive; negative | mutagenic call (Test System: AMES SALMONELLA TYPHIMURIUM, Strain/Indicator: TA100, Metabolic Activation: RAT, LIVER, S-9, AROCLOR 1254 (10%), Method: PREINCUBATION): inactive; negative | mutagenic call (Test System: AMES SALMONELLA TYPHIMURIUM, Strain/Indicator: TA1535, Metabolic Activation: HAMSTER, LIVER, S-9, AROCLOR 1254 (10%), Method: PREINCUBATION): inactive; negative | mutagenic call (Test System: AMES SALMONELLA TYPHIMURIUM, Strain/Indicator: TA1535, Metabolic Activation: NONE, Method: PREINCUBATION): inactive; negative | mutagenic call (Test System: AMES SALMONELLA TYPHIMURIUM, Strain/Indicator: TA1535, Metabolic Activation: RAT, LIVER, S-9, AROCLOR 1254 (10%), Method: PREINCUBATION): inactive; negative | mutagenic call (Test System: AMES SALMONELLA TYPHIMURIUM, Strain/Indicator: TA1537, Metabolic Activation: HAMSTER, LIVER, S-9, AROCLOR 1254 (10%), Method: PREINCUBATION): inactive; negative | mutagenic call (Test System: AMES SALMONELLA TYPHIMURIUM, Strain/Indicator: TA1537, Metabolic Activation: NONE, Method: PREINCUBATION): inactive; negative | mutagenic call (Test System: AMES SALMONELLA TYPHIMURIUM, Strain/Indicator: TA1537, Metabolic Activation: RAT, LIVER, S-9, AROCLOR 1254 (10%), Method: PREINCUBATION): inactive; negative

O=C(O[C@@H]1Cc2c(O)cc(O)cc2O[C@H]1c1ccc(O)c(O)c1)c1cc(O)c(O)c(O)c1
mutagenic call (Test System: Ames Salmonella typhimurium, Strain/Indicator: TA102, Metabolic Activation: None, Method: Preincubation): inactive; negative | mutagenic call (Test System: Ames Salmonella typhimurium, Strain/Indicator: TA102, Metabolic Activation: Rat, Liver, S-9, Aroclor 1254 in 0.154 M KCl, Method: Preincubation): inactive; negative
